Test results taken from patent US10183039B2, “Methods for the production of collagen IV” (Vanderbilt University, priority 2013, dated 2019).

Target: T1, peroxidasin (Mus musculus, UniProt Q3UQ28)
T1 construct: Cultured murine PFHR9 cells synthesize collagen IV networks that contain sulfilimine crosslinks due to the activity of PXDN; endogenous in cells; host or cells: PFHR-9 cells (isolated matrix from KI-treated culture)
T1 sequence (Q3UQ28 24-1475): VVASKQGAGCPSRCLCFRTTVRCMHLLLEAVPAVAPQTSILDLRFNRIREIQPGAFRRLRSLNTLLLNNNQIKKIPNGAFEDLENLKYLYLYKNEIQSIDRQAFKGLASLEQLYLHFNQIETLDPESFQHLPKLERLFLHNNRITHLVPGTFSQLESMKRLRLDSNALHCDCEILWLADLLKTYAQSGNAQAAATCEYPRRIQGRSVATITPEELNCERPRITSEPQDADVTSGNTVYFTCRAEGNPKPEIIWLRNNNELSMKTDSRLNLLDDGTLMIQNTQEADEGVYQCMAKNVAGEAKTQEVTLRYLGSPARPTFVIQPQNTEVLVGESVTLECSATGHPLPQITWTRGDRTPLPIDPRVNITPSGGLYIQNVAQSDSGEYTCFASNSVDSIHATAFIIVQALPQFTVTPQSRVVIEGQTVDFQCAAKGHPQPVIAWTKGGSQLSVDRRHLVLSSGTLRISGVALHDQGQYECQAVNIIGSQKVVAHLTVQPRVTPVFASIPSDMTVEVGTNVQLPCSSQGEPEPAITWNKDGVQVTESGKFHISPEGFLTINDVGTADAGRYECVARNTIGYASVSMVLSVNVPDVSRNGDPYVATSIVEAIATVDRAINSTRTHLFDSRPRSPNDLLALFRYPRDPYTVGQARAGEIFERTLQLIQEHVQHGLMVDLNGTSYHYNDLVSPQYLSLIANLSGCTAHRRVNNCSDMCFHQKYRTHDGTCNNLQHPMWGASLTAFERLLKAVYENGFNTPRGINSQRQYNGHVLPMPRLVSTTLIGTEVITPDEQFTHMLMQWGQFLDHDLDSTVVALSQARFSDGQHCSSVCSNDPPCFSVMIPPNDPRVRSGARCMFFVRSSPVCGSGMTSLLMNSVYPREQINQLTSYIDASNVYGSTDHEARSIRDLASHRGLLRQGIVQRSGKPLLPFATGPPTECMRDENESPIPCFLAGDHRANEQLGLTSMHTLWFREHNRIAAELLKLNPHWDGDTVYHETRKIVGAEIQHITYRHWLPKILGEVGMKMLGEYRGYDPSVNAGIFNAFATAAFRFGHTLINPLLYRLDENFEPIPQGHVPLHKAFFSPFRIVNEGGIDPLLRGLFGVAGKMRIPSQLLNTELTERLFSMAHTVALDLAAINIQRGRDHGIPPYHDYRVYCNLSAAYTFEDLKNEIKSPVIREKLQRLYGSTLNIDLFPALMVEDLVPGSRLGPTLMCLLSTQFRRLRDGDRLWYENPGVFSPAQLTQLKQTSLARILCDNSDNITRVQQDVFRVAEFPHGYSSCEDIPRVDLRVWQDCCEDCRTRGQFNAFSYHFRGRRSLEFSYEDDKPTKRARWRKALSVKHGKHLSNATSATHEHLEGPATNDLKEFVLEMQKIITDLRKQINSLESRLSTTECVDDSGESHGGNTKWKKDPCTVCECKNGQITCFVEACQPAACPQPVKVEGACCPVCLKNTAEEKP
Test: In vitro basement membrane (uncrosslinked PFHR-9 matrix) reaction with halides and H2O2
Type: biochemical
Method: (FIG. 8A) Matrix pellets isolated from KI-treated PFHR9 cell culture were extensively washed into 10 mM phosphate buffer (pH 7.4) supplemented with 100 mM KF to maintain ionic strength. Potassium salts of Cl— or Br— were added in indicated amounts. 1 hr reactions at 37° C. were initiated by addition of H2O2 to 1 mM and stopped by freezing at −20° C. Coomassie blue-stained gels after collagenase digestion of the samples and SDS-PAGE (FIG. 8B) Schematic of Br-Free chloride salt purification apparatus and setup. […] Reagent KCl was commercially obtained and unaltered prior to analysis. 100 mM solutions were made with 18MΩ deionized water. (FIG. 8C) Coomassie blue stained gel of collagenase digested PFHR-9 matrix reaction assay. Reaction buffered contained 10 mM phosphate buffer (pH 7.4), 100 mM Br-Free or Commercially obtained reagent grade KCl, as well as 1 mM H2O2 and 200 μM PHG where appropriate. (FIG. 8D) SDS-PAGE and coomassie blue stain of hPXDN (27.25 nM) and NC1 domain (1.3 μM) reaction and subsequent densiometric quantitation of S═N bond formation stiochiometry in response to NaBr addition. hPXDN and PFHR-9 NC1 domain were prepared and purified as described (5), except with all buffers for all purification steps (dialysis, chromatography, gradient ultracentrifugation) made with Br-Free chloride salts. Reactions were run for 10 minutes at 37° C. with 10 μM H2O2 as the terminal oxidant. Dose-response curve run in the presence of 1× Br-Free PBS. Reactions were quenched with 0.2 mg/ml Catalase, 20 mM Methionine, and 1 mM PHG. EC50 value±95% C.I. from two independent experiments with each data point plotted and fit.
Uncrosslinked PFHR9 matrix was extensively washed into 10 mM phosphate buffer (pH 7.4) that was supplemented with 100 mM KF to maintain ionic strength. One hour reactions at 37° C. were initiated by addition of H2O2 to 1 mM and stopped by freezing at −20° C. […] Samples were digested with collagenase at 37° C. overnight and visualized by SDS-PAGE using 12% gels under non-reducing conditions with Coomassie staining.
PFHR-9 cells treated with potassium iodide (1-10 mM) to eliminate NC1 hexamer crosslinks were used for basement membrane isolation. To test halide dependency, the inventors established halide-free conditions by washing extensively (at least five times) with 10 mM sodium phosphate pH 7.4. To try to extract or inactivate endogenous basement membrane peroxidase activity, the inventors extracted the matrix preparation twice with 2M guanidine-Cl, 50 mM Tris-Cl pH 7.5 and 10 mM EDTA-Na pH 8 followed by extensive washing with 1×PBS. Basement membrane was resuspended in the desired buffer with or without cofactors and inhibitors to examine in vitro NC1 crosslinking under various conditions. Basement membranes were collagenase solubilized to delineate collagen IV NC1 sulfilimine crosslink formation with SDS-PAGE and Coomassie blue staining membrane was isolated, washed extensively and resuspended in 1×PBS. Azide (0-10 mM) and 1 mM H2O2 were added and allowed to react for 1 h at 37° C. The matrix was pelleted, washed extensively with 1×PBS and solubilized with 1×PBS plus 2% (w/v) SDS. Solubilized proteins were reacted with 100 μM Tris[(1-benzyl-1H-1,2,3-triazol-4-yl)methyl]amine (Anaspec), 1 mM Tris(2-carboxyethyl)phosphine hydrochloride (ThermoFisher Pierce), 1 mM cupric sulfate and 100 μM biotin alkyne (PEG4 carboxamide-propargyl biotin; Life Technologies) for 1 h at 37° C. Click chemistry reactions were quenched with 1 mM 3′-azido-3′-deoxythymidine (Sigma). For avidin-HRP detection, samples were electrophoresed under reducing conditions, transferred to nitrocellulose membranes and probed with streptavidin-HRP according to manufacturer instructions (ThermoFisher Pierce). To isolate biotinylated proteins, the inventors precipitated click reaction products with two volumes of cold acetone to remove reactants, washed them with 70% (v/v) acetone and then resolubilized them in 1×PBS plus 2% SDS.

Q: `Br` [bromide] was tested. Which “crosslink formation on bromide addition to Br-free chloride” value did it give?
A: restored

Q: What about the “halide concentration at which crosslinked dimeric subunits formed” value of the same compound?
A: ~100 mM

Q: What about the “halide concentration permitting enzymatic crosslinking within purified matrix” value of the same compound?
A: 10 µM

Q: What about the “S═N bond formation in isolated matrix” value (pH 7.4) of the same compound?
A: robustly catalyzed bond formation at 10 μM
